From patent US6849619B2, “Substituted pyridoindoles as serotonin agonists and antagonists” (Bristol-Myers Squibb Company, priority 2000, dated 2005)

Row | melting point [°C] | SMILES
1 | 122 to 124 | COc1ncc(C)cc1Nc1cc2c3c(c1)[C@@H]1CNCC[C@@H]1N3CCOC2 [Example 172, (7bR,11aS)-N-(2-Methoxy-5-methyl-3-pyridinyl)-1,2,7b,8,9,10,11,11a-octahydro-4H-[1,4]oxazepino[6,5,4-hi]pyrido[4,3-b]indole-6-amine]
2 | 59 to 68 | CCOc1ncc(C)cc1Nc1cc2c3c(c1)[C@@H]1CNCC[C@@H]1N3CCOC2 [Example 173, (7bR,11aS)-N-(2-Ethoxy-5-methyl-3-pyridinyl)-1,2,7b,8,9,10,11,11a-octahydro-4H-[1,4]oxazepino[6,5,4-hi]pyrido[4,3b]indole-6-amine]
